Laboratory results published in patent US20260070911A1, “INHIBITORS OF TAM RECEPTORS” (National Health Research Institutes, priority 2022, published 2026).

What was measured:
[1] = tested on: MC38 murine colon tumor; experiment: Immune modulatory activity in MC38 murine colon tumor model; format: in vivo, C57BL/6J mice; conditions: 50 mg/kg orally twice per day for five days
Description: Female C57BL/6J mice between 8-10 weeks of age were used. Murine colon tumor MC38 cells were detected as free of Mycoplasma spp prior to injection into animals. MC38 cells at 10^5 cells per mouse in 100 μL culture medium were implanted subcutaneously into the left flank region of mice with a 25⅝-gauge needle (n=5-6 animals per group). […] Treatments were initiated after randomization with inclusion of tumors at approximately 150 mm^3. Tumor growths were measured with an electronic caliper and volumes are calculated as L×W×W/2. Tumor size and animal body weight were measured twice a week after tumor cell inoculation. All experiments were conducted in accordance with the protocols approved by National Health Research Institutes' Institutional Animal Care and Use Committee.
Ten days after the treatment, the tumor cells and spleen cells in the mice were collected to study effect of this compound on the immune cells, i.e., tumor-associated macrophages and T cells. Briefly, tumor and spleen from vehicle control and Compound 11 were harvested and isolated into single cells. Single cell suspension were pre-incubated with mouse Fc receptor blocker before staining with appropriate antibody conjugate for Cd45, Cd3, Cd4, Cd8, F4/80, Cd11b, Cd86, AXL, MERTK and analyzed by flow cytometry to quantify the accumulation of immune cells including Cd4 (Cd3^+Cd4^+), Cd8 (Cd3^+Cd8^+), macrophages (Cd11b^+F4/80^+), tumor associated macrophage (M2, Cd11b^+F4/80^+Cd206^+), classical macrophage (M1, Cd11b^+F4/80+/Cd86^+) populations. For intracellular staining of analysis of tumor-associated macrophage marker Cd206 expression, cells were fixed by using Cytofix/Cytoperm™ kit (BD Biosciences, Franklin Lakes, New Jersey) after surface marker staining and then stain with anti-mouse Cd206 antibody conjugate. Live/dead fixable dye were used to exclude non-viable cells from the analyses.

[2] = tested on: MDA-MB-231 TNBC cells; experiment: In vivo activity against breast cancer (MDA-MB-231 xenograft); set-up: species or system NOD/SCID mice; conditions: day 35 after the treatment, from 150 mm^3 (control 600 mm^3)
Description: Compound 11 was further evaluated for its in vivo efficacy in treating breast cancer. MDA-MB-231 TNBC cell lines were used. Prior to injection into animals, the cancer cells were detected as free of Mycoplasma spp. Five million MDA-MB-231 cells in culture medium and matrigel (1:1, v/v) were injected subcutaneously into the left flank region of the NOD/SCID mice (n=8 animals per group). Treatments were initiated after randomization with inclusion of tumors at approximately 150 mm^3. The compound was prepared using 10% DMA: 40% PEG400:50% (1% CMC) (v/v/v).
Each group was administered orally twice a day for five days. Control animals were orally administered with vehicle only. Tumor growths were measured with an electronic caliper and volumes were calculated as L×W×W/2. Tumor size and animal body weight were measured twice a week after tumor cell inoculation.

[3] = tested on: MC-38 murine colon tumor; experiment: In vivo activity against colon tumor (MC38); set-up: species or system C57BL/6J mice; conditions: day 17 after the treatment; 50 mg/kg orally twice a day for 5 days; control 2000 mm^3
Description: Compound 11 was evaluated for its in vivo efficacy in treating colon tumor. Female C57BL/6J mice between 8-10 weeks of age were used. Murine colon tumor MC38 cells were detected as free of Mycoplasma spp prior to injection into animals. MC38 cells at 10^5 cells per mouse in 100 μL culture medium were implanted subcutaneously into the left flank region of mice with a 25⅝-gauge needle (n=8 animals per group). […] Treatments were initiated after randomization with inclusion of tumors at approximately 50 mm^3.
Control animals were orally administered with vehicle only. Tumor growths were measured with an electronic caliper and volumes were calculated as L×W×W/2. Tumor size and animal body weight were measured twice a week after tumor cell inoculation. After the treatment, tumor volumes and body weight changes were measured.

SMILES: Cn1cc(-c2oc3ncnc(Oc4ccc(NC(=O)c5cccn(-c6ccc(F)cc6)c5=O)cc4)c3c2-c2cccc(N)c2)cn1 [Compound 11, N-(4-{[5-(3-aminophenyl)-6-(1-methyl-1H-pyrazol-4-yl)furo[2,3-d]pyrimidin-4-yl]oxy}phenyl)-1-(4-fluorophenyl)-2-oxo-1,2-dihydropyridine-3-carboxamide]
- expression of MERTK in CD4+ T cells (spleen) ([1]; decreased from 7%): 3%
- level of M2-phenotype macrophages in the tumor cells ([1]; decreased from 10%): 5%
- expression of AXL in CD8+ T cells (spleen) ([1]; decreased from 13%): 5%
- level of macrophages in the tumor cells ([1]; decreased from 18%): 13%
- expression of MERTK in CD8+ T cells (spleen) ([1]; decreased from 32%): 20%
- expression of AXL in CD4+ T cells (spleen) ([1]; decreased from […]): 0.7%
- level of CD4+ T cells in the spleen cells ([1]; increased from 5%): 10%
- level of CD8+ T cells in the spleen cells ([1]; increased from 18%): 28%
- level of total T cells in the spleen cells ([1]; increased from 30%): 43%
- tumor size ([1]; 10 days after treatment, from 200 mm^3 (vehicle 1000 mm^3)): 350 mm^3
- tumor volume ([2]; 25 mg/kg orally twice a day for five days): 300 mm^3
- tumor volume ([2]; 50 mg/kg orally twice a day for five days): 220 mm^3
- tumor volume [3]: 300 mm^3
